Patent US20260256871A1, “COMPOSITIONS AND METHODS FOR TREATMENT OF SUBJECTS SUFFERING FROM A SARS-COV-2 INFECTION” (priority 2022, published 2026)
“Also recorded” adds a separate entry of the source. Counter-ions that a name gives are not always drawn. Like-named read-outs stand apart in the source and are kept apart here.

How the values were obtained:
[1] = tested on: SARS-CoV2; assay type: cell-based; conditions: for viral load: antioxidants NAC and SFN; for inhibition of SARS-CoV2 replication in HBECs (viral copy number): camostat basolateral
[2] = tested on: 16HBE cells; assay: Cytotoxicity, CytoTox 96 LDH release assay; conditions: for cytotoxicity (LDH release) at maximum concentration used in antiviral assays: 72 h, camostat 125 μM, HA 0.7%, BAPTA-AM 10 uM, allopurinol 400 μM, NAC 100 mM, SFN 10 μM, ivacaftor, PAAG at maximum; for toxicity values (percent of maximum toxicity): Allopurinol 400 uM, NAC 50 mM, SFN 5 uM, 72 hours
[3] = tested on: cells; conditions: due to the very low pH; cited from earlier work
[4] = tested on: SARS-CoV2; assay: Protection against SARS-CoV2 in Vero cells; assay type: cell-based

Q: With CC(C)(C)c1cc(C(C)(C)C)c(NC(=O)c2c[nH]c3ccccc3c2=O)cc1O [Ivacaftor, ivacaftor] as the compound, how does the “effect on SARS-CoV-2 replication” value ([1]; ivacaftor basolateral, ≥10 μM, close to its maximum solubility) read?
A: moderate effect

Q: And the “cytotoxicity (LDH release) at maximum concentration used in antiviral assays” value (shortened to “cytotoxicity (LDH release)”) [2]?
A: showed cytotoxicity

Q: For CC(=O)N[C@@H](CS)C(=O)O [NAC, N-Acetyl-L-cysteine], which viral load [1] is on record?
A: reduction in the viral load

Q: What about the “cytotoxicity (LDH release)” value [2] of the same compound?
A: neither allopurinol, NAC nor SFN showed cytotoxicity

Q: What about the “toxicity values (percent of maximum toxicity)” value [2] of the same compound?
A: negative values of toxicity

Q: Which results are given for C[S+]([O-])CCCCN=C=S (stereo not shown) [SFN, sulforaphane]?
A: viral load [1]: reduction in the viral load; cytotoxicity (LDH release) at maximum concentration used in antiviral assays [2]: neither allopurinol, NAC nor SFN showed cytotoxicity; toxicity values (percent of maximum toxicity) [2]: negative values of toxicity

Q: For Oc1ncnc2[nH]ncc12 [allopurinol], which “protection of HBECs from SARS-CoV2 infection (replication)” value ([1]; allopurinol 400 uM, xanthine oxidase inhibition) is on record?
A: significantly protected; also recorded: significantly blocks SARS-CoV2 replication

Q: What about the “cytotoxicity (LDH release)” value [2] of the same compound?
A: neither allopurinol, NAC nor SFN showed cytotoxicity

Q: What about the “toxicity values (percent of maximum toxicity)” value [2] of the same compound?
A: negative values of toxicity

Q: With O=C1O[C@H]([C@@H](O)CO)C(O)=C1O [ascorbic acid] as the compound, how does the “cytotoxicity of component alone (without bicarbonate buffer)” value [3] read?
A: cytotoxic

Q: Which “antiviral activity of ARINA-1 components” value [1] does the source give for O=C([O-])O.[Na+] [bicarbonate alone, sodium bicarbonate] here?
A: did not show significant activity

Q: Which “inhibition of SARS-CoV2 replication in HBECs (viral copy number)” value ([1]; vs DMSO vehicle, 72 h) does the source give for CN(C)C(=O)COC(=O)Cc1ccc(OC(=O)c2ccc(NC(=N)N)cc2)cc1 [camostat mesylate] here?
A: dose-dependent manner

Q: What about the “inhibition of SARS-CoV2 replication in HBECs (viral copy number)” value ([1]; vs DMSO vehicle, 72 h, listed as Camostat) of the same compound?
A: significantly inhibited

Q: And the “inhibition of SARS-CoV2 infection” value ([1]; camostat mesylate basolateral, concentrations higher than 16.62 μM, vs DMSO vehicle, 72 h)?
A: ~100%

Q: What about the “protection against SARS-CoV2” value [4] of the same compound?
A: partially protective

Q: And the “cytotoxicity (LDH release)” value [2]?
A: not toxic

Q: Which “cytotoxicity of component alone (without bicarbonate buffer)” value [3] does the source give for N[C@@H](CCC(=O)N[C@@H](CS)C(=O)NCC(=O)O)C(=O)O [glutathione] here?
A: cytotoxic
